Source: patent publication US20240335431A1, “1-H-PYRROLO[2,3-c]PYRIDINE COMPOUNDS” (Acerta Pharma B.V., priority 2023, published 2024)
Read-outs that look alike come from different tables or passages of the source.

Experiments:
[1] = system: MOLM-13 cells; test: Proliferation assay, MOLM-13 (CellTiter-Glo, 7 days); assay type: cell-based, human
Description: (§1) The anti-proliferative effect of compounds was tested in human leukaemia cell lines. The cell lines […] and MV4; 11 each harbor an MLL translocation expressing the MLL fusion proteins MLL-AF9 and MLL-AF4, respectively. Each also express the wildtype protein from the second allele. OCI-AML3 cells carrying the NPM1c gene mutation were also tested.
(§2) MOLM-13 and HEL cells were cultured in RPMI 1640 (Gibco) supplemented with 10% FBS (Gibco) and 1% Pen/Strep (Gibco). MV4; 11 cells were cultured in IMDM (Gibco) supplemented with 10% FBS (Gibco) and 1% Pen/Strep (Gibco). OCI-AML3 cells were cultured in MEMa (Gibco) supplemented with 20% FBS (Gibco) and 1% Pen/Strep (Gibco).
(§3) To assess proliferative effects, 125 MOLM-13 cells, 300 MV4; 11 cells, 75 OCI-AML3 cells, and 200 HEL cells were seeded in 40 μL media per well in 384-well ViewPlates (Perkin Elmer, 6007480). Cell seeding numbers were chosen based on growth curves to ensure linear growth throughout the experiments. Test compounds were added at 3.16-fold serial dilutions in DMSO from […] and DMSO content was normalized to 0.1%. Cells were incubated for 7 days at 37° C. and 5% CO2. A day 0 plate was seeded for each cell line and used as a standard control.
(§4) To measure cell viability, CellTiter-Glo 2.0 (Promega, G9242) luminescent growth indicator was used. 10 μL CellTiter-Glo reagent was added per well. Plates were placed on a plate shaker for 2 minutes in the dark and left to incubate off the shaker for another 8 minutes in the dark, for a total of 10 minutes. Plates were read using an EnVision plate reader (Perkin Elmer) using the Luminescence aperture and a measurement time of 0.1 second.
(§5) Data were analyzed in Genedata Screener®. IC50 values were determined by plotting % inhibition versus log compound concentration and using a one site dose response model. Raw data signals were normalized using 0.1% DMSO media only as background control, 0.1% DMSO with cells no compound as 100% viability (maximum signal), and day 0 0.1% DM with cells no compound as 0% viability (minimum signal).

[2] = system: MV4;11 cells; test: Proliferation assay, MV4;11 (CellTiter-Glo, 7 days); assay type: cell-based, human; details: read-out: MV-4-11 IC50
Description: as §1, §2, §3, §4, §5

[3] = system: HEL cells; test: Proliferation assay, HEL control cell line (CellTiter-Glo, 7 days); assay type: cell-based, human; details: Homo sapiens, HEL, 168 h
Description: as §1, §2, §3, §4, §5

[4] = target: T1, hERG (Homo sapiens (Human), UniProt Q12809); test: hERG assay 1 (standard), SyncroPatch 384PE; assay type: cell-based; details: CHO cells, room temperature, up to 40 uM
T1 sequence (Q12809 whole entry): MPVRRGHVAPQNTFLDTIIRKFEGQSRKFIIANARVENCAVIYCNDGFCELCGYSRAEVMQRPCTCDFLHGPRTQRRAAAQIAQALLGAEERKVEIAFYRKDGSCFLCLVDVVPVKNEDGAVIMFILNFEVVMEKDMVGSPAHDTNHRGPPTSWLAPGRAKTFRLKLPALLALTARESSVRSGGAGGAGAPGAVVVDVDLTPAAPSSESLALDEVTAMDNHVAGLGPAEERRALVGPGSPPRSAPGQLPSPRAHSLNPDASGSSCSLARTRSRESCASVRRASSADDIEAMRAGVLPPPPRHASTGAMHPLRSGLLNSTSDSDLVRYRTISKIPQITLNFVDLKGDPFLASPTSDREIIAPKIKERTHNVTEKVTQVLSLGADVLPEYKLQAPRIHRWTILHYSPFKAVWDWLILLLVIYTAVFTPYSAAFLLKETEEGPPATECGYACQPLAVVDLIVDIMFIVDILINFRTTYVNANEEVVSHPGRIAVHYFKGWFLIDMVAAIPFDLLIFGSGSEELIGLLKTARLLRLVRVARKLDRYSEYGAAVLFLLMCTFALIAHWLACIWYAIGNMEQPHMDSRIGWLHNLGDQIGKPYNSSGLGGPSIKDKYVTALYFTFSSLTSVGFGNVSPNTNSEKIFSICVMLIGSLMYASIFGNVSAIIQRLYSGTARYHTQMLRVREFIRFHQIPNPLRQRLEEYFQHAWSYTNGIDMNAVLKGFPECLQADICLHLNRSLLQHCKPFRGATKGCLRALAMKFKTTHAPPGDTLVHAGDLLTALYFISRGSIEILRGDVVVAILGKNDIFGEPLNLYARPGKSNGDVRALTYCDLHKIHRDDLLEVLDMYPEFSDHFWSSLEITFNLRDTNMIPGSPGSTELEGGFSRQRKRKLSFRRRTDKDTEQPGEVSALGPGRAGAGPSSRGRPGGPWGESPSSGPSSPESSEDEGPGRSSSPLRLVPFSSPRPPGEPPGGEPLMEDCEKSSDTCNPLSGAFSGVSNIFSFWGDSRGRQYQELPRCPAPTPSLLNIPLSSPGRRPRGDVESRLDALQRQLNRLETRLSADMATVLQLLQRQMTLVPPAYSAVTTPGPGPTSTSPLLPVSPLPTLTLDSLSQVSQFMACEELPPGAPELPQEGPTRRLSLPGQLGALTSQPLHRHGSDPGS
Description: Experiments were performed on the SyncroPatch 384PE (Nanion Technologies) high throughput patch clamp platform at room temperature and used medium resistance chips with 4 patch holes per site. hERG-expressing Chinese hamster ovary K1 (CHO) cell line was used in assay-ready format and kept in liquid nitrogen until use. 2 vials of cells (10×10^6 cells per vial) were thawed and added to 20 ml Hepes-buffered saline solution (HBSS). HBSS comprised 140 mM NaCl, 4 mM KCl, 10 mM HEPES and 5 mM Glucose (pH 7.4). The internal patch clamp solution was KF 120 mM, KCl 20 mM, HEPES 10 mM, EGTA 10 mM, and 25 μM Escin (pH 7.2). After the initial sealing process was complete, a seal enhancer solution comprising HBSS supplemented with 10 mM CaCl2 and 1 mM MgCl2 was applied to cells. The external solution was then exchanged (4 times) for external patch clamp solution comprising NaCl 80 mM, KCl 4 mM, HEPES 10 mM, CaCl2 2 mM, MgCl2 1 mM, glucose 5 mM, and NMDG 60 mM (pH7.4). All compounds were dispensed from initial 10 mM DMSO stocks. An industry standard +60/−40 mV voltage protocol was applied every 15 seconds. Compounds were tested in a 6-point cumulative assay (final DMSO concentration 0.33%), with a concentration range of 139 nM to 40 uM. Data were analyzed in Genedata Screener®. IC50 values were determined by plotting % inhibition versus log compound concentration and using a one site dose response model. Only wells that passed acceptance criteria for this platform were used in this analysis (30 MegaOhm seal resistance, Z prime >0.4 and current size >0.2 nA).

[5] = target: T1, hERG; test: hERG assay 2, QPatch II 48X, room temperature; assay type: cell-based; details: hERG DUO cell line, top 200 μM
Description: Experiments were performed on the QPatch II 48X (Sophion Biosciences) high throughput patch clamp platform at room temperature and used single hole Qplates. hERG DUO cell line (BSys) was used. The internal patch clamp solution was KF 60 mM, KCl 70 mM, HEPES 10 mM, EGTA 10 mM, and 5 mM Mg ATP (pH7.2). After sealing and whole cell access was gained the external solution (NaCl 140 mM, KCl 4 mM, HEPES 10 mM, CaCl2 2 mM, MgCl2 1 mM, glucose 5 mM (pH 7.4) was applied twice to establish stable baseline currents. An industry standard +40/−40 mV voltage protocol was applied every 15 seconds. All compounds were tested in a 6-point cumulative assay (final DMSO concentration 0.4-2% depending on stock concentration of compounds). Compounds were dispensed from initial 10 mM or 50 mM DMSO stocks after which DMSO dilutions were undertaken with a top concentration of 200 μM tested. Solvent controls were run in all experiments in line with the DMSO % required. Only wells that passed acceptance criteria for this platform were used in this analysis (500 MegaOhm seal resistance and current size >0.2 nA). Analysis was completed in Prism Graphpad to complete a composite IC50, by plotting % inhibition versus log compound concentration and using a log(inhibitor) vs. response—Variable slope.

[6] = Human liver microsomes (HLMs) intrinsic clearance assay; assay type: in vitro ADME; details: for microsomal CLint at 1 µM: human, microsomes, pH 7.4, HLM CLint
Description: Human liver microsomes (HLMs) were obtained from Corning (UltraPool 150 donors) at a concentration of 20 mg/mL protein. HLMs were stored at −80° C. until use and prior to use, thawed in a 37° C. water bath and then stored on wet ice. DMSO and NADPH were sourced from Solarbio S&T Co Ltd.
2 mL of 10 mM DMSO stock solutions of test compound were added to 198 mL acetonitrile to produce […] concentration. 1325 mL of 20 mg/mL HLM were added to 22260 mL of phosphate buffer to produce the HLM mixture. An 8.334 mg/mL solution of NADPH was prepared in 100 mmol/L pH 7.4 phosphate buffer.
222.5 mL of the HLM mixture and 25 mL of the 10 mM NADPH were added into the incubation plates (1 mL 96 well deep well plate from Thermo). The mixture was vortexed for 10 seconds at 1000 rpm. The incubation plate was pre-warmed in a water bath at 37° C. for 8 minutes. 2.5 mL of the […] stocks of test compound was added to initiate the reaction. The mix was vortexed for 12 seconds at 1000 rpm and incubated at 37° C. The incubation mixture (250 mL) contained 1 mg/mL HLM, 1 mmol/L NADPH and […].
The reaction was quenched by transferring 20 mL of the incubation mixture at 0.5, 5, 10, 15, 20 and 30 minutes into the quenching plate containing 100 mL of cold stop solution (acetonitrile containing internal standards). The plate was vortexed at 800 rpm for 2 minutes.
The quenching plates were centrifuged for 20 minutes at 4000 rpm and 4° C. 40 mL of the supernatant was transferred into a 96-well analysis plate containing 160 mL of water. The analysis plate was shaken at 1000 rpm for 2 minutes and the samples analysed by LC-MS/MS.
Peak areas were determined from extracted ion chromatograms. Percent parent remaining was calculated from peak area of test compound. The slope value, k, was determined by linear regression of the natural logarithm of percent parent remaining versus incubation time. The in vitro half-life (t1/2) was determined from the slope value by the equation: […]
Conversion of the in vitro half-life (min) into in vitro CLint (mL/min/mg proteins) was completed using the equation: […]

[7] = system: OCI-AML3 cells; test: Proliferation assay, OCI-AML3 (CellTiter-Glo, 7 days); assay type: cell-based, human; details: Homo sapiens, OCI-AML-3, 168 h
Description: as §1, §2, §3, §4, §5

[8] = Caco-2 cell monolayers intrinsic permeation assay in the presence of efflux inhibitors; assay type: in vitro ADME; details: Caco-2, with efflux inhibitors
Description: Caco-2 cells were obtained from American Type Culture Collection (ATCC). HEPES, penicillin, streptomycin, bovine serum albumin (BSA) were obtained from Beijing Xinjingke Biotechnology Co, Ltd. Fetal bovine serum, Hank's balanced salt solution (HBSS) and non-essential amino acids (NEAA) were purchased from Gibco. Dulbecco's Modified Eagle's Medium (DMEM) was purchased from Corning and MES from Sigma. HTS Transwell-24 permeable supports were purchased from Corning. Zosuquidar and Ko-143 were obtained from MedChemExpress and Benzbromarone from Sigma.
The Caco-2 cell culture medium consisted of DMEM with high glucose and L-glutamine supplemented with 10% FBS, 0.1 mg/mL streptomycin, 100 units of penicillin, 0.6 mg/mL kanamycin sulfate and 1×NEAA. […] culture medium was added to each Transwell insert with 800 mL added to each well of the reservoir. After incubation at 37° C. in 5% CO2 for 1 hour, the plates were ready for seeding.
The cells were cultivated in T-75 flasks at 37° C., 5% CO2, 95% relative humidity. At 80 to 90% confluence, cells were treated with trypsin/EDTA treatment until they became detached. The trypsin/EDTA was inactivated by adding excess serum containing medium. The cell suspension was centrifuged at 120 g for 10 minutes followed by resuspension of the cell pellet in seeding medium at a cell density of 7.92×10^5 cells/mL.
[…] of the resulting cell suspension was added to each well of the Transwell plate and incubated for 14 to 18 days, with medium replaced every other day. After incubation for 14 to 18 days, the cells should have reached confluence and should be tested for electrical resistance using a Millicel Epithelial Volt-Ohm measuring system (Millipore).
The cell monolayers were washed twice with pre-warmed HBSS and incubated at 37° C. for 30 minutes under gentle shaking (480 rpm).
The compound under test was presented as a 10 mM DMSO stock solution. 2 mL of the 10 mM stock was added to 8 mL DMSO to produce a 2 mM stock. 2 mL was added to 398 mL of HBSS containing 10 mM Zosuquidar, 30 mM Benzbromarone and 2 mM KO-143 to make a […] solution.
210 mL of the test compound solution was added to the apical compartment of the Transwell plate, with a 10 mL sample taken to act as the time 0 sample. The wells of the receiver (basolateral) compartment were filled with 800 mL HBSS (containing the efflux inhibitors). The plates were incubated at 37° C. with shaking at 480 rpm for 120 minutes with sampling at 45 and 120 minutes.
At each sampling time (0, 45 and 120 minutes) 10 mL was removed from the apical compartment and add to 90 mL (HBSS containing the efflux inhibitors). 100 mL was removed from each basolateral compartment. 3 volumes of cold acetonitrile containing internal standard was added to each sample and vortex mixed for 10 minutes at 100 rpm. Samples were then centrifuged at 400 rpm for 20 minutes. 50 mL of the supernatant was taken for LC/MS/MS analysis to determine compound concentration.
The apparent permeability (Papp), in units of centimetre per second, were calculated for Caco-2 drug transport using the following equation: […]
Where CR is the concentration of compound in the receiver side at the respective time point, CD is the concentration of compound in the donor side at the respective timepoint. Area is the surface area of the membrane and time is 4500 seconds (75×60 seconds).

Row | IC50 ([1]; Homo sapiens, MOLM-13, 168 h) | IC50 ([2]; Homo sapiens, MV4-11, 168 h) | IC50 [7] | microsomal CLint at 1 µM [6] | Papp A→B [8] | SMILES | IC50 [1] | IC50 [2] | IC50 [3] | IC50 [4] | IC50 [5] | HLM CLint ([6]; 1 mg/mL HLM, NADPH)
1 | – | – | – | – | – | CCN(C(=O)c1cc(F)ccc1-n1c(C)c(C(=O)C2CCN(C(=O)[C@@H]3CCC4(CC4)N3)CC2)c2ccncc21)C(C)C (single isomer, unassigned) [Example 49-1] | 2290 nM | 2950 nM | > 10000 nM | > 40000 nM | > 200000 nM | >300 µL/min/mg
2 | 154 nM | 144 nM | 275 nM | 18 µL/min/mg | 0.4 ×10⁻⁶ cm/s | C[C@@H]1CC[C@H](C)N1C(=O)c1cc(F)ccc1-n1cc(C(=O)C2CCN(C(=O)[C@H]3N[C@@H]4CC[C@H]3C4)CC2)c2ccncc21 [Example 32, (1-((1R,3S,4S)-2-Azabicyclo[2.2.1]heptane-3-carbonyl)piperidin-4-yl)(1-(2-((2R,5S)-2,5-dimethylpyrrolidine-1-carbonyl)-4-fluorophenyl)-1H-pyrrolo[2,3-c]pyridin-3-yl)methanone] | – | – | > 10000 nM | – | – | –
3 | 65 nM | 31 nM | 47 nM | 259 µL/min/mg | – | CC(C)c1ccccc1-c1cc(F)ccc1-n1cc(C(=O)C2CCN(C(=O)[C@H]3N[C@@H]4CC[C@H]3C4)CC2)c2ccncc21 [Example 39, (1-((1R,3S,4S)-2-Azabicyclo[2.2.1]heptane-3-carbonyl)piperidin-4-yl)(1-(5-fluoro-2′-isopropyl-[1,1′-biphenyl]-2-yl)-1H-pyrrolo[2,3-c]pyridin-3-yl)methanone] | – | – | 6900 nM | – | – | –
